The source of these data is publication PMC8803906, “Metabolite Identification and Pharmacokinetic Behavior of Diaveridine in the Plasma of Pigs and Chickens Based on Radioactive Tracing Coupled With LC/MS-IT-TOF Assay” (Frontiers in Veterinary Science, 2022).

Entries after “also recorded” stand apart in the source; their conditions may differ. Where two headings read alike, the source gives them in different places. Some results are limits rather than exact numbers.

Details of data set [1]: method as in PMID 4650364. The note with it: urine at 8 h after a single oral dose of 10 mg/kg BW TMP; cited from earlier work.
Data set [2] in a line: Plasma pharmacokinetics of DVD and its metabolites in pigs after a single oral dose of ^3H-DVD (radioactive tracing, LC-v.ARC/MS-IT-TOF). The note with it: for Radioactive compound detected/identified in plasma / Concentration in plasma: single oral ^3H-DVD 10 mg/kg BW; for Concentration in plasma: pigs. The text has this: (§1) Four healthy castrated male pigs (Landrace/Doric Cross, 60-d-old, 30 ± 2 kg) were supplied by the China Breeding Pig Testing Center of Huazhong Agricultural University (Wuhan, China). Six healthy Cobb 500 broiler chickens (three female and three male, 40-d-old, 2.5 ± 0.1 kg) were purchased from Wuhan Chia Tai chicken farm (Wuhan, China). All animals were maintained under standard environmental conditions by using normal husbandry practices and were acclimatized for 1 week. The animals were fed a commercial standard diet and water ad libitum, but were fasted overnight before dose administration and up to 4 h after dose administration. All animal care and experimental protocols were conducted in accordance with the Guide for the Care and Use of Laboratory Animals of Hubei Provincial Laboratory Animal Public Service Center (permit number SYXK 2013-0044) and approved by the Ethics Committee of Huazhong Agricultural University.
(§2) Pigs (n = 4) and chickens (n = 6) were weighed individually and given a single dose of 10 mg/kg BW ^3H-DVD with a specific activity of 0.23 Ci/g. The ^3H-DVD solution was prepared by accurately mixing ^3H-DVD and non-labeled DVD at a mass ratio of 1:96 and diluting it with 0.5% methylcellulose to make a homogeneous suspension with a concentration of 25 mg/ml. The suspension was administered by gastric gavage using a soft stomach tube connected to an injection syringe. About 1.5 ml of blood was collected into heparinized tubes from the anterior venae cavae of pig and the wing veins of chicken at different time points. For pigs, blood was collected before administration and 0.17, 0.33, 0.5, 0.67, 1, 1.5, 2, 4, 6, 8, 12, 24, 48, 72, 168, and 336 h after oral treatment. For chickens, blood was collected before administration and 0.25, 0.5, 1, 1.5, 2, 4, 6, 8, 12, 24, 36, 48, 72, 168, and 336 h after oral dosing. Plasma samples were collected after centrifugation at 4°C and 2,254 × g for 10 min and were stored at −20°C until analysis.
(§3) Plasma samples were completely thawed at room temperature. Each sample was divided into two parts, one was used for the assay of total radioactivity, and the other was subjected to a MCX Solid Phase Extraction (SPE) procedure for the qualitative and quantitative analysis of DVD-related metabolites.
(§4) The total radioactivity assay was conducted in accordance with a previous study with a few modifications ([20]). Briefly, 50 μl of plasma was mixed with 50 μl of 0.1 mol/L EDTA-Na and 50 μl of 30% H2O2 at 50°C in a shaking water bath for 2 h for bleaching. The obtained transparent liquid was mixed with 10 ml of Ultima Gold™ scintillation fluid and was analyzed directly using a Packard Tri-Carb 2900 TR liquid scintillation counter (PerkinElmer Life and Analytical Sciences, Waltham, MA, USA). The scintillation counter data were automatically corrected for counting efficiency using an instrument-stored quench curve that was drawn with a series of sealed quenched ^14C standards. All the samples were analyzed in duplicate and the actual radioactivity of each sample was calculated by subtracting the […].
(§5) A 500 μl plasma sample was adjusted to pH 2.8–3.2 with 1 ml of 1 M hydrochloric acid (HCl), and a […] aliquot of the mixture was placed in a MCX cartridge preconditioned with 3 ml of methanol followed by 3 ml of 0.1 mol/L HCl water. The cartridge was washed with 3 ml of 0.1 mol/L HCl water and then eluted with 5 ml NH4OH/methanol (8:92, v:v). The effluent was concentrated to dryness under a stream of nitrogen at 40°C. The residue was reconstituted in 250 μl of methanol-water (1:9, v:v) before injection onto the LC-v.ARC/MS-IT-TOF system for metabolite identification and quantitation.
(§6) Measurement of total radioactivity in each sample was conducted using a Packard Tri-Carb 2900 TR liquid scintillation counter. The detection time was 10 min for two cycles.

On the set-up of data set [3]: method as in PMID 22161732. The note with it: pig liver microsomes incubated with DVD; cited from earlier work.
Another data set in a line: in vivo.
Description: as §1, §2, §3, §4, §5, §6

The subject of data set [4] is tester strain TA100 and TA98. The arrangement: method as in PMID 1922158, PMID 26397222. The note with it: cited from earlier work.
The conditions of data set [5]: pigs, cited from earlier work.
For data set [6] the following is noted: chickens, cited from earlier work.
Details of data set [7]: method as in PMID 26212255. The note with it: cited from earlier work.
[8] abbreviates: pig plasma, oral ^3H-DVD 10 mg/kg BW.
[9] abbreviates: male, Landrace/Doric Cross, pig, in vivo, po, 10 mg/kg.
Setting [10] is: both, Cobb 500 broiler, in vivo, po, 10 mg/kg.
The mark [11] stands for this setting: HPLC-UV method, previous studies.

Consider `COc1cc(Cc2cnc(N)nc2N)cc(O)c1OC` [3′-demethylated TMP], for which, in data set [1], the Content in urine was more than 30%.

As for `COc1ccc(Cc2cnc(N)nc2N)cc1O` [D1, 3′-desmethyl-DVD], the “AUC0−∞” value in data set [2] (setting [8]) worked out at 3720 ± 620 ng·h/mL. The “ClB (total body clearance)” value in data set [2] (setting [8]) was 46 ± 7.67 mL/min/kg. In addition, in data set [2] (setting [8]), the “Cmax (maximum drug concentration)” value was 240 ± 50 ng/mL. Besides, the “MRT0−∞” value in data set [2] (setting [8]) was determined as 22.93 ± 1.28 h. In addition, in data set [2] (setting [8]), the MRTLast was determined as 15.23 ± 0.25 h. Moreover, the “Tmax (time to Cmax from time zero)” value in data set [2] (setting [8]) is given as 2 h. Moreover, the “Vd (apparent volume of distribution)” value in data set [2] (setting [8]) was 70.38 ± 6.67 L/kg. For the same compound, in data set [2] (pig plasma, oral ^3H-DVD 10 mg/kg BW, non-compartmental), the “t1/2 (elimination half-life)” value is 17.86 ± 1.30 h. Moreover, in data set [2] (pig plasma), the “Radioactive compound detected/identified in plasma” value was “identified; also recorded: detected”. Besides, the Concentration in plasma in data set [2] (0.5 h, ND = below the LOQ) is 120 ± 30 ng/mL; in data set [2] (0.67 h), 150 ± 20 ng/mL; in data set [2] (1 h), 160 ± 40 ng/mL; in data set [2] (1.5 h), 190 ± 30 ng/mL; in data set [2] (2 h), 240 ± 60 ng/mL; in data set [2] (4 h), 160 ± 20 ng/mL. The Concentration in plasma came out at 100 ± 20 ng/mL in data set [2] (6 h); 80 ± 10 ng/mL in data set [2] (8 h); 80 ± 10 ng/mL in data set [2] (12 h); 60 ± 10 ng/mL in data set [2] (24 h); 20 ± 10 ng/mL in data set [2] (48 h). The “Metabolite detected in vitro” value in data set [3] is on record as “detected”.

For the compound `COc1ccc(Cc2cnc(N)nc2N)cc1OC` [D0, 5-[(3′,4′-dimethoxyphenyl)methyl]-2,4-pyrimidinediamine, reference compound], the “Tmax (time to Cmax from time zero)” value was determined as 2.0 ± 0.0 h in data set [2] (male, Landrace/Doric Cross, pig, in vivo); 2 h in data set [2] (setting [8]); 2.0 ± 0.0 h in “in vivo” (both, Cobb 500 broiler, chicken, in vivo); 2 h in the data set “in vivo” (chicken plasma, oral ^3H-DVD 10 mg/kg BW). Besides, the concentration at 168 h in data set [2] (male, Landrace/Doric Cross, pig, in vivo, 10 mg/kg BW) stood at 60 ± 20 ng/mL; in the data set “in vivo” (both, Cobb 500 broiler, chicken, in vivo, 10 mg/kg BW) it was 90 ± 30 ng/mL. Also, the AUC0−∞ in data set [2] (male, Landrace/Doric Cross, pig, in vivo, po) came out at 33900 ng·h/mL; in “in vivo” (both, Cobb 500 broiler, chicken, in vivo, po), 55300 ng·h/mL. Moreover, the total exposure AUC(0-inf) turned out to be 33900 ± 5810 ng·h/mL in data set [2] (setting [9]) and 55300 ± 11500 ng·h/mL in the data set “in vivo” (setting [10]). The “ClB (total body clearance)” value amounted to 5 ± 0.83 mL/min/kg in data set [2] (setting [9]) and 3.17 ± 0.67 mL/min/kg in “in vivo” (setting [10]). Further, the Cmax in data set [2] (setting [9]) was 490 ± 20 ng/mL; in “in vivo” (setting [10]), 1550 ± 390 ng/mL; in data set [5] (setting [11]), 430 ng/mL; in data set [6] (setting [11]), 1450 ng/mL. Further, the mean residence time MRT inf worked out at 93 ± 12.6 h in data set [2] (setting [9]) and 66.2 ± 10.7 h in “in vivo” (setting [10]). The MRT last in data set [2] (setting [9]) worked out at 57.3 ± 1.72 h; in “in vivo” (setting [10]), 43.7 ± 2.42 h. The values for the half-life (in data set [2] (setting [9]); in “in vivo” (setting [10])) were 66.4 ± 10.1 h and 48.3 ± 12.8 h, respectively. The “Radioactive compound detected/identified in plasma” value is “identified; also recorded: detected” in data set [2] (pig plasma) and “identified; also recorded: detected” in the data set “in vivo” (chicken plasma, single oral ^3H-DVD 10 mg/kg BW). Besides, the “Time at which DVD was still detected in plasma” value in data set [2] (pig plasma, this study) is given as 168 h; in “in vivo” (chicken plasma, this study), 168 h; in data set [5] (HPLC-UV, ref Li et al. 15), 6 h; in data set [6] (HPLC-UV, ref Li et al. 15) it was 24 h. Also, the Mutagenicity entry in data set [4] (strain TA100 after metabolic activation with hamster S9 mix) is recorded as “mutagenic”; in data set [4] (tester strain TA100 and TA98, presence and absence of rat S9 mix), “not mutagenic”. Moreover, the results for the time to peak (Tmax) in data set [5] (setting [11]) and in data set [6] (setting [11]) were 1.04 h and 3.25 h, respectively. For the same compound, the Withdrawal period in data set [7] (kidney) was 6.74 days; in data set [7] (liver), 4.94 days; in data set [7] (muscle), 4.77 days; in data set [7] (skin with fat), 4.58 days.

As for `COc1cc(Cc2cnc(N)nc2N)cc(OC)c1O` [4′-demethylated TMP], in data set [1], the Content in urine is 1%.
